The values that follow come from article PMC11845477, “Exploring the principles behind antibiotics with limited resistance” (Nature Communications, 2025).

Test [1] relates to E. coli ATCC 25922 (SEN) and E. coli NCTC13846 (MDR). The test can be described thus: Frequency-of-resistance (FoR) assay, relative MIC of mutants. Type of test: cell-based, Escherichia coli. The settings on record: for MIC: Escherichia coli. Here is the method:
(§1) The susceptibility of antibiotics to resistance development was evaluated in two strains of each bacterial species: a multidrug-resistant strain and an antibiotic-sensitive strain of Escherichia coli, Klebsiella pneumoniae, Acinetobacter baumannii, and Pseudomonas aeruginosa. To explore first-step resistance, we previously used a standard protocol for spontaneous frequency-of-resistance analysis (FoR assay) at multiple concentrations of each antibiotic[10],[28],[31]–[33]. […] For all other combinations, approximately 10^10 bacterial cells were exposed to one of each antibiotic on agar plates for two days at concentrations where the given strain is susceptible. We examined resistance levels by contrasting the minimum inhibitory concentration (MICs) of the mutated strains to the original wild-type bacterial strain (i.e., relative MIC).
(§2) To estimate the frequency of spontaneous mutations that confer resistance in a microbial population, we conducted a frequency of resistance (FoR) assay following established protocols[10],[31]–[33]. […] Prior to plating, bacteria were grown overnight in MHB medium at 37 °C and 250 RPM, then centrifuged and washed in MHB. All experiments were performed in triplicate, and plates were incubated at 37 °C for 48 hours. Total colony-forming units (CFUs) were determined by plating appropriate dilutions onto antibiotic-free MHB agar. Resistance frequencies were calculated by dividing the number of resistant colonies by the initial viable cell count. From the plates with the highest antibiotic concentration, ten colonies were selected for MIC determination and whole-genome sequencing.
(§3) A robotic liquid handling system was used to automatically prepare a 11 to 16-step serial dilution in 384-well microtiter plates (Greiner). A final concentration of 5 × 10^5 bacterial cells per mL were inoculated into each well containing 60 µL MHB medium. Bacterial cultures were incubated at 37 °C with continuous shaking (Infors shaker, 900 rpm with 3 mm throw) for 18 hours (2 replicates from each). Cell growth was monitored by measuring the optical density (OD600 values, using Biotek Synergy microplate reader). MIC was defined as the antibiotic concentration of complete growth inhibition (i.e., OD600 < 0.05). Relative MIC was calculated as follows:1 relativeMIC=MICevolved/MICancestor […]
(§4) Supplementary Figure 3. Resistance levels following the frequency of resistance assay across bacterial strains. The level of resistance was measured as the fold change in relative MIC between evolved and ancestral strains. Data are grouped by bacterial strain (A. baumannii (AB), E. coli (EC), K. pneumoniae (KP), and P. aeruginosa (PA)) and categorized as either multidrug-resistant (MDR) or sensitive (SEN). Each data point represents a laboratory evolved line, and boxplots show the median, first and third quartiles, with whiskers indicating the 5th and 95th percentiles. […]
(§5) analysis was performed using two-sided Dunn’s post-hoc test with Benjamini-Hochberg correction for multiple comparisons (**/ * indicates p < 0.01/ 0.05). For detailed information on antibiotic and bacterial species, see Supplementary Table 1. For mode of action groups, refer to Table 1. Source data are provided as a Source Data file.

For test [2], the system named is A. baumannii ATCC 17978 (SEN) and A. baumannii ATCC BAA-1605 (MDR). The test is described as above. Type of test: cell-based, Acinetobacter baumannii. The settings on record: for MIC: Acinetobacter baumannii, read-out: MIC of evolved line, Acinetobacter baumannii ATCC 17978 (AB-SEN). Here is the method:
as §1, §2, §3, §4, §5

Test [3] deals with E. coli BW25113: pUCacrAB. The test is described as follows: AcrAB-TolC efflux overexpression screen, relative MIC. The following applies: pUCacrAB vs empty pUC118 control. In kind it is cell-based, Escherichia coli. Here is the method: Fig. 6 The impact of AcrAB-TolC activity on antibiotic susceptibility. E. coli strains with AcrAB-TolC depletion (BW25113-ΔacrB) and overexpression (BW25113: pUCacrAB) were treated with various antibiotics, and the level of resistance was determined as minimum inhibitory concentration (MIC) relative to a wild-type strain, presented on a logarithmic scale (log2). Each bar represents the mean resistance level (susceptibility, i.e., level of resistance < 0; and resistance, i.e., level of resistance > 0) to antibiotics induced by acrAB overexpression (blue bars; E. coli with a multicopy plasmid of the acrAB genes (pUCacrAB)) and acrB deletion (red bars; mutant E. coli with acrB gene deletion (ΔacrB)) compared to the wild-type. Data are presented as mean values of 3 biological replicates ± SD. […] Detailed information on antibiotic and bacterial strain abbreviations is provided in Supplementary Data 1. Source data are provided as a Source Data file. For information on mode of action groups, refer to Table 1.
For the efflux deficiency screen, the ΔacrB mutant of E. coli K12 BW25113[86] and its equivalent wild-type control strain with intact gene were utilized. In contrast, BW25113 carrying a multicopy acrAB plasmid (pUCacrAB)[87] and its control strain harboring an empty pUC118 plasmid were used to overexpress the acrAB efflux system. According to established protocols via P1 transduction, the suitable acrB deletion mutant (ΔacrB BW25113) was created, while the pUCacrAB plasmid was kindly provided by Kunihiko Nishino and Akihito Yamaguchi (Osaka University, Osaka, Japan). In a prior study, both strains were employed. Since the copy number of the plasmid carrying the efflux pump is controlled by native promoters, external induction is unnecessary.
Antibiotic susceptibilities of these strains were evaluated using a modified version of the standard broth dilution method. In 96-well microtiter plates containing fresh MHB medium, or supplemented MS medium in case of SCH79797, ten-step serial dilutions of an antibiotic from a stock solution were made (2 wells per antibiotic concentration per strain). The two wells contained only supplemented media without any antibiotics […]. Strains were incubated overnight at 37 °C with continuous agitation. Additionally, plasmid containing strains were grown in the presence of 100 µg/mL ampicillin. The culture was diluted to yield a cell suspension with 5 ×10^5 cells/mL and then inoculated into the wells of the microtiter plate. To determine the medium’s background OD value, the first column of the 96-well plate contained solely MHB without inoculum. Prior to the measurement, the plates were incubated at 37 °C with continuous shaking at 900 rpm with 3 mm throw. OD600 values were determined in a microplate reader after 18 hours of incubation (Biotek Synergy 2). The minimum inhibitory concentration (MIC) was determined as the lowest concentration of antibiotic at which the OD600 values were less than 0.05 after subtracting the background value. The log2 of the relative MIC was computed using the following equation:2 log2relativeMICpUCacrAB=MICpUCacrAB/MICpUC118 3 log2relativeMICΔacrB=MICΔacrB/MICwt

Setting [4] is: Escherichia coli ATCC 25922 (EC-SEN), evolved line 1 versus ancestor.
The mark [5] stands for this setting: Escherichia coli ATCC 25922 (EC-SEN), evolved line 2 versus ancestor.
The mark [6] stands for this setting: Escherichia coli ATCC 25922 (EC-SEN), evolved line 3 versus ancestor.
[7] abbreviates: read-out: MIC of evolved line, Escherichia coli ATCC 25922 (EC-SEN), evolved line 2.
The mark [8] stands for this setting: read-out: MIC of evolved line, E. coli NCTC 13846 (EC-MDR), evolved line 2.
Where [9] appears, read: read-out: MIC of evolved line, Escherichia coli ATCC 25922 (EC-SEN), evolved line 1.
The mark [10] stands for this setting: read-out: MIC of evolved line, Escherichia coli ATCC 25922 (EC-SEN), evolved line 3.
Where [11] appears, read: Acinetobacter baumannii ATCC 17978 (AB-SEN), evolved line 1 versus ancestor.
The mark [12] stands for this setting: Acinetobacter baumannii ATCC 17978 (AB-SEN), evolved line 2 versus ancestor.
The mark [13] stands for this setting: Acinetobacter baumannii ATCC 17978 (AB-SEN), evolved line 3 versus ancestor.

Read-outs that look alike come from different tables or passages of the source. Where a SMILES comes first, the peptide text is derived from it. Bridges are numbered along the chain shown (N, C = ends). [ ]: non-standard residue; d: D form. The star is where a group is joined. X2 = CC[C@H](C)CCCCC(=O)*; Dab = NCC[C@H](N)C(=O)O

Turning to polymyxin-B, the MIC of evolved line in test [1] (E. coli ATCC 25922 (EC-SEN), evolved line 1) stood at 4 µg/mL; in test [1] (E. coli ATCC 25922 (EC-SEN), evolved line 2), 1 µg/mL; in test [1] (E. coli ATCC 25922 (EC-SEN), evolved line 3) it was 8 µg/mL; in test [1] (E. coli NCTC 13846 (EC-MDR), evolved line 1) it was 4 µg/mL; in test [1] (E. coli NCTC 13846 (EC-MDR), evolved line 2) it was 4 µg/mL; in test [1] (E. coli NCTC 13846 (EC-MDR), evolved line 3) it was 4 µg/mL. Moreover, the MIC of evolved line in test [2] (Acinetobacter baumannii ATCC 17978 (AB-SEN), evolved line 1) turned out to be 0.5 µg/mL; in test [2] (Acinetobacter baumannii ATCC 17978 (AB-SEN), evolved line 2), 0.5 µg/mL; in test [2] (Acinetobacter baumannii ATCC 17978 (AB-SEN), evolved line 3) it was 0.5 µg/mL; in test [2] (Acinetobacter baumannii ATCC BAA 1605 (AB-MDR), evolved line 3), 16 µg/mL.
Take `C[C@@H]1CN2c3c(cc4c(N5C(=O)OC[C@@H]5C)noc4c3F)CC3(C(=O)NC(=O)NC3=O)[C@H]2[C@H](C)O1` [Zoliflodacin]: the “Relative MIC” value in test [1] (setting [4]), in test [1] (setting [5]) and in test [1] (setting [6]) was 8 throughout. In test [1] (setting [7]), the MIC came to 16 µg/mL. The “Relative MIC (log2)” value in test [3] (replicate 1), in test [3] (replicate 2) and in test [3] (replicate 3) was 2 throughout.
On to Tridecaptin M152-P3, for which the MIC of evolved line amounted to 4 µg/mL in test [1] (Escherichia coli ATCC 25922 (EC-SEN), evolved line 1); 4 µg/mL in test [1] (Escherichia coli ATCC 25922 (EC-SEN), evolved line 2); 4 µg/mL in test [1] (Escherichia coli ATCC 25922 (EC-SEN), evolved line 3).
For the compound `CNC(C)C1CCC(N)C(OC2C(N)CC(N)C(OC3OCC(C)(O)C(NC)C3O)C2O)O1` (stereo not drawn) [Gentamicin], the “Relative MIC” value was 8 in test [1] (E. coli NCTC 13846 (EC-MDR), evolved line 1, evolved vs ancestor); 4 in test [1] (E. coli NCTC 13846 (EC-MDR), evolved line 2, evolved vs ancestor); 4 in test [1] (E. coli NCTC 13846 (EC-MDR), evolved line 3, evolved vs ancestor); 16 in test [1] (setting [4]); 16 in test [1] (setting [5]); 8 in test [1] (setting [6]). The figures for the “Relative MIC” value in test [2] (setting [11]), in test [2] (setting [12]) and in test [2] (setting [13]) were 32, 16 and 64, respectively. Also, the MIC in test [1] (read-out: MIC of evolved line, E. coli NCTC 13846 (EC-MDR), evolved line 1) came to 8 µg/mL; in test [1] (setting [8]) it was 4 µg/mL; in test [1] (read-out: MIC of evolved line, E. coli NCTC 13846 (EC-MDR), evolved line 3) it was 4 µg/mL; in test [1] (setting [9]), 16 µg/mL; in test [1] (setting [7]), 16 µg/mL; in test [1] (setting [10]) it was 8 µg/mL. Moreover, the MIC in test [2] (evolved line 1) worked out at 16 µg/mL; in test [2] (evolved line 2), 8 µg/mL; in test [2] (evolved line 3) it was 32 µg/mL. Also, the “Relative MIC (log2)” value in test [3] (replicate 1), in test [3] (replicate 2) and in test [3] (replicate 3) was 0 each time.
Take `CN[C@@H]1[C@@H](O[C@H]2O[C@H](CO)[C@@H](N)[C@H](O)[C@H]2O)OC2C[C@@H](N)[C@@H](O[C@H]3[C@H](O)[C@@H](O)[C@H](N)C[C@@H]3N)OC2[C@@H]1O` (stereo partly drawn) [Apramycin]: the “Relative MIC” value in test [2] (setting [11]) stood at 8; in test [2] (setting [12]), 16; in test [2] (setting [13]), 8. Besides, the MIC in test [2] (evolved line 1) is 32 µg/mL; in test [2] (evolved line 2), 64 µg/mL; in test [2] (evolved line 3), 32 µg/mL. Further, the “Relative MIC (log2)” value in test [3] (replicate 1), in test [3] (replicate 2) and in test [3] (replicate 3) was 0 throughout.
Take `COc1c(N2C[C@@H]3CCCN[C@@H]3C2)c(F)cc2c(=O)c(C(=O)O)cn(C3CC3)c12` [Moxifloxacin]: the minimal inhibitory concentration (MIC) in test [2] (evolved line 1) is 0.5 µg/mL; in test [2] (evolved line 2), 2 µg/mL; in test [2] (evolved line 3), 1 µg/mL.
In the case of `CC[C@H](C)CCCCC(=O)N[C@@H](CCN)C(=O)N[C@H](C(=O)N[C@@H](CCN)C(=O)N[C@H]1CCNC(=O)[C@H]([C@@H](C)O)NC(=O)[C@H](CCN)NC(=O)[C@H](CCN)NC(=O)[C@H](CC(C)C)NC(=O)[C@@H](Cc2ccccc2)NC(=O)[C@H](CCN)NC1=O)[C@@H](C)O` [Polymyxin B] (X2-[Dab]T[Dab][Dab][Dab][dF]L[Dab][Dab]T; lactam 4-C (inferred); N-terminus assumed), the “Relative MIC (log2)” value in test [3] (replicate 1), in test [3] (replicate 2) and in test [3] (replicate 3) was 0 throughout.
On to `C[C@@H](O)[C@H]1C(=O)N2C(C(=O)O)=C(S[C@@H]3CN[C@H](C(=O)N(C)C)C3)[C@H](C)[C@H]12` [Meropenem], for which the minimum inhibitory concentration (MIC) in test [1] (setting [8]), in test [1] (setting [9]), in test [1] (setting [7]) and in test [1] (setting [10]) was 0.0156 µg/mL throughout.
